Results reported in patent publication US20040116522A1, “Medicinal solutions” (priority 2001, published 2004).

Columns and labels:
[1] = cited from earlier work
[2] = Serum drug concentration after subcutaneous implantation of the minipump of Example 6; format: in vivo; details: from s.c. minipump of Example 6 in male SD rats
From the text: The subcutaneous implantation type minipump prepared in Example 6 was subcutaneously implanted in the back of 7-week-old male SD rats. After a predetermined time after the implantation, blood was drawn from the tail vein of the rats, and serum was separated.

Row | SMILES | pKa [1] | Period of sustained release [2]
1 | O=C(O)c1cc2ccccc2cc1O [3-hydroxy-2-naphthoic acid] | 2.708 | –
2 | CONC(=O)Nc1ccc(-c2sc3c(c2CN(C)Cc2ccccc2)c(=O)n(-c2ccccc2)c(=O)n3Cc2c(F)cccc2F)cc1 [Reference Example 7, 5-(N-Benzyl-N-methylaminomethyl)-1-(2,6-difluorobenzyl)-6-[4-(3-methoxyureido)phenyl]-3-phenylthieno[2,3-d]pyrimidine-2,4(1H,3H)-dione] | – | 21 days
